Assay results: US10508089B2, “Use of N-(1,3,4-Oxadiazol-2-yl)arylcarboxamides or their salts for controlling unwanted plants in areas of transgenic crop plants being tolerant to HPPD inhibitor herbicides” (BASF SE, priority 2014, dated 2019)
Where two headings read alike, the source gives them in different places.

Columns and labels:
Avena HPPD SEQ ID No 2 = Avena HPPD SEQ ID No 2 (Avena sativa, UniProt A0ACD5V6K6); test: Determination of HPPD activity in presence of N-(1,3,4-Oxadiazol-2-yl)arylcarboxamides (pI50); format: biochemical; settings: negative log of molar concentration; inhibitor 0.1 to 100 μM; room temperature; 600 μM HPP
Experimental: (§1) HPPD activity was measured at room temperature by adding appropriate amounts of HPPD to a solution of 200 mM Tris-HCl pH 7.6, 10 mM ascorbate, 20 μM FeSO4, 650 units of catalase, 8 μg HGA dioxygenase (HGA: homogentisate) and 600 μM HPP in a total volume of 1 ml. Initial reaction rates in the absence or presence of inhibitors were determined from the increase in absorbance at 318 nm due to the formation of maleylacetoacetate (ϵ318=11,900 M−1 cm−1). pI50-values (the negative log values of the concentration of inhibitor necessary to inhibit 50% of the enzyme activity in molar concentration were determined from dose-response plots of HPPD activity versus inhibitor concentrations tested (0.1 to 100 μM) using the 4 Parameter Logistic Model or Sigmoidal Dose-Response Model of the ID Business Solutions Ltd. XLfit software suite. Due to the UV absorption of the HPPD inhibitors tested, inhibitor concentrations >100 μM could not be tested. In cases, the symbol “>” is used this means that the value was far higher than the one indicated but could not be precisely calculated within in the range of concentration of inhibitor tested.
(§2) In the 1st column of Table 8, the chemical compound employed in the assay is named (according to the numbering of the Tables 1 to 7, above). In columns 2, 3, 4, and 5 the pI50-values of the corresponding chemical compounds against various HPPD enzymes (name and SEQ ID Nos are indicated, respectively) are given.

FMP 37 SEQ ID No 9 = FMP 37 SEQ ID No 9 (Blepharisma japonicum, UniProt A8R3H6); test: as above; format: biochemical; settings: negative log of molar concentration; inhibitor 0.1 to 100 μM; room temperature; 600 μM HPP
Experimental: as §1, §2

[1] = target: PfHPPD Evo 41 SEQ ID No 29 (Pseudomonas sp., UniProt P80064, A172V/A339Q/A53E/D148E/D45N/E105D/E287Q/E300V/E334P/F143Y/G286D/G335W/H150N/H254A/H63N/I158V/I187A/I249V/K338A/K92N/L18F/N24G/N280D/S245T/S257K/S301E/T205S/V65I); test: biochemical; design: species or system Pseudomonas fluorescens
[2] = system: T2 soybean events expressing PfHPPD-Evo33; format: in vivo; settings: 14 days after treatment
[3] = system: T2 soybean events expressing PfHPPD-Evo40; format: in vivo; settings: 14 days after treatment
[4] = system: T2 soybean events expressing PfHPPD-Evo41; format: in vivo; settings: 14 days after treatment
[5] = system: T2 soybean events expressing PfHPPD-W336 (PfHPPD-G336W); format: in vivo; settings: 14 days after treatment
[6] = system: T3 cotton events expressing PfHPPD-Evo33; format: in vivo; settings: 200 g Al/ha, post-emergence V3, scored after 14 days, field
[7] = system: T3 cotton events expressing PfHPPD-Evo41; format: in vivo; settings: 200 g Al/ha, post-emergence V3, scored after 14 days, field

FMP 37 SEQ ID No 9, sequence (A8R3H6 entry or part of it): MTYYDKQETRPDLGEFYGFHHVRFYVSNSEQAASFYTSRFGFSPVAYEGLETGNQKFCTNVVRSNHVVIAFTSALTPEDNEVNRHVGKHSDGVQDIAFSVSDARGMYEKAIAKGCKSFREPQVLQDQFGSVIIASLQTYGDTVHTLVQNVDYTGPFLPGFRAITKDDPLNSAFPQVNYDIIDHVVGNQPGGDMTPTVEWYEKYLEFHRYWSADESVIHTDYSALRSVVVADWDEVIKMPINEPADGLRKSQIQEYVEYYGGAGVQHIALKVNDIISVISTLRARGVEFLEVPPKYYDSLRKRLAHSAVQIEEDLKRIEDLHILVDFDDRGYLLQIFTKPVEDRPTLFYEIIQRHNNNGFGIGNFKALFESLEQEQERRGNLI
PfHPPD Evo 41 SEQ ID No 29, sequence (P80064 1-354 with tags or gaps with the stated changes limits assumed): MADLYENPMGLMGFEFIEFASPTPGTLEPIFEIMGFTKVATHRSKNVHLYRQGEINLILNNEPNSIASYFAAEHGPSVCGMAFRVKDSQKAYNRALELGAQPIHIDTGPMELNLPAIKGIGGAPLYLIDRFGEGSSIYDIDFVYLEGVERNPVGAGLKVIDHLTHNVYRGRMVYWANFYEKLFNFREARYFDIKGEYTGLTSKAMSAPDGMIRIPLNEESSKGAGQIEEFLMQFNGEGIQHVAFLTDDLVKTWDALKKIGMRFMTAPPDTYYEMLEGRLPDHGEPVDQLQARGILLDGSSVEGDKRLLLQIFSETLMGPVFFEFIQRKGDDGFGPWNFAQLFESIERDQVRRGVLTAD
Avena HPPD SEQ ID No 2, sequence (A0ACD5V6K6 entry or part of it): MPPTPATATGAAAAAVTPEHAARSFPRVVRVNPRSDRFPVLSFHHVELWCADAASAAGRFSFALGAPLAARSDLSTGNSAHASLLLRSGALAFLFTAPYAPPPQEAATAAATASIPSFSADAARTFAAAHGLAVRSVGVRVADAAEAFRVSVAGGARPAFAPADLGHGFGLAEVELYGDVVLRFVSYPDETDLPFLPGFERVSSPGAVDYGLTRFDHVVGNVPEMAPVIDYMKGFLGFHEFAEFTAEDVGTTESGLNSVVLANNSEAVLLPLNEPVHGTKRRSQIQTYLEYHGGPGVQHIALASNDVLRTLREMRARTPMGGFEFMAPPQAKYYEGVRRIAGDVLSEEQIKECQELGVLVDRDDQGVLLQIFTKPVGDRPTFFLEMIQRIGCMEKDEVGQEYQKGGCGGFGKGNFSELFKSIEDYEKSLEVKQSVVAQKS

Cc1nnc(NC(=O)c2ccc(C(F)(F)F)c(S(C)(=O)=O)c2C)o1 [Compound 2-145]
IC50 (Avena HPPD SEQ ID No 2): 1.58 µM
IC50 (FMP 37 SEQ ID No 9): 10 µM
IC50 [1]: 5.01 µM
Number of plants categorized herbicide tolerance “0” (marginal; 41%-100% damaged leaf area) ([2]; 6.25 g Al/ha, total 12): 0
Number of plants categorized herbicide tolerance “1” (moderate; 26%-40% damaged leaf area) ([2]; 6.25 g Al/ha, total 12): 0
Number of plants categorized herbicide tolerance “2” (good; 16%-25% damaged leaf area) ([2]; 6.25 g Al/ha, total 12): 0
Number of plants categorized herbicide tolerance “3” (high; less than or equal to 15% damaged leaf area) ([2]; 6.25 g Al/ha, total 12): 12
Number of plants categorized herbicide tolerance “0” (marginal; 41%-100% damaged leaf area) ([2]; 25 g Al/ha, total 16): 1
Number of plants categorized herbicide tolerance “1” (moderate; 26%-40% damaged leaf area) ([2]; 25 g Al/ha, total 16): 1
Number of plants categorized herbicide tolerance “2” (good; 16%-25% damaged leaf area) ([2]; 25 g Al/ha, total 16): 0
Number of plants categorized herbicide tolerance “3” (high; less than or equal to 15% damaged leaf area) ([2]; 25 g Al/ha, total 16): 14
Number of plants categorized herbicide tolerance “0” (marginal; 41%-100% damaged leaf area) ([2]; 50 g Al/ha, total 4): 0
Number of plants categorized herbicide tolerance “1” (moderate; 26%-40% damaged leaf area) ([2]; 50 g Al/ha, total 4): 0
Number of plants categorized herbicide tolerance “2” (good; 16%-25% damaged leaf area) ([2]; 50 g Al/ha, total 4): 1
Number of plants categorized herbicide tolerance “3” (high; less than or equal to 15% damaged leaf area) ([2]; 50 g Al/ha, total 4): 3
Number of plants categorized herbicide tolerance “0” (marginal; 41%-100% damaged leaf area) ([2]; 75 g Al/ha, total 4): 0
Number of plants categorized herbicide tolerance “1” (moderate; 26%-40% damaged leaf area) ([2]; 75 g Al/ha, total 4): 0
Number of plants categorized herbicide tolerance “2” (good; 16%-25% damaged leaf area) ([2]; 75 g Al/ha, total 4): 0
Number of plants categorized herbicide tolerance “3” (high; less than or equal to 15% damaged leaf area) ([2]; 75 g Al/ha, total 4): 4
Number of plants categorized herbicide tolerance “0” (marginal; 41%-100% damaged leaf area) ([3]; 6.25 g Al/ha, total 8): 0
Number of plants categorized herbicide tolerance “1” (moderate; 26%-40% damaged leaf area) ([3]; 6.25 g Al/ha, total 8): 0
Number of plants categorized herbicide tolerance “2” (good; 16%-25% damaged leaf area) ([3]; 6.25 g Al/ha, total 8): 0
Number of plants categorized herbicide tolerance “3” (high; less than or equal to 15% damaged leaf area) ([3]; 6.25 g Al/ha, total 8): 8
Number of plants categorized herbicide tolerance “0” (marginal; 41%-100% damaged leaf area) ([3]; 25 g Al/ha, total 12): 0
Number of plants categorized herbicide tolerance “1” (moderate; 26%-40% damaged leaf area) ([3]; 25 g Al/ha, total 12): 0
Number of plants categorized herbicide tolerance “2” (good; 16%-25% damaged leaf area) ([3]; 25 g Al/ha, total 12): 0
Number of plants categorized herbicide tolerance “3” (high; less than or equal to 15% damaged leaf area) ([3]; 25 g Al/ha, total 12): 12
Number of plants categorized herbicide tolerance “0” (marginal; 41%-100% damaged leaf area) ([3]; 50 g Al/ha, total 4): 0
Number of plants categorized herbicide tolerance “1” (moderate; 26%-40% damaged leaf area) ([3]; 50 g Al/ha, total 4): 0
Number of plants categorized herbicide tolerance “2” (good; 16%-25% damaged leaf area) ([3]; 50 g Al/ha, total 4): 0
Number of plants categorized herbicide tolerance “3” (high; less than or equal to 15% damaged leaf area) ([3]; 50 g Al/ha, total 4): 4
Number of plants categorized herbicide tolerance “0” (marginal; 41%-100% damaged leaf area) ([3]; 75 g Al/ha, total 4): 0
Number of plants categorized herbicide tolerance “1” (moderate; 26%-40% damaged leaf area) ([3]; 75 g Al/ha, total 4): 0
Number of plants categorized herbicide tolerance “2” (good; 16%-25% damaged leaf area) ([3]; 75 g Al/ha, total 4): 0
Number of plants categorized herbicide tolerance “3” (high; less than or equal to 15% damaged leaf area) ([3]; 75 g Al/ha, total 4): 4
Number of plants categorized herbicide tolerance “0” (marginal; 41%-100% damaged leaf area) ([4]; 6.25 g Al/ha, total 12): 0
Number of plants categorized herbicide tolerance “1” (moderate; 26%-40% damaged leaf area) ([4]; 6.25 g Al/ha, total 12): 1
Number of plants categorized herbicide tolerance “2” (good; 16%-25% damaged leaf area) ([4]; 6.25 g Al/ha, total 12): 0
Number of plants categorized herbicide tolerance “3” (high; less than or equal to 15% damaged leaf area) ([4]; 6.25 g Al/ha, total 12): 11
Number of plants categorized herbicide tolerance “0” (marginal; 41%-100% damaged leaf area) ([4]; 25 g Al/ha, total 16): 0
Number of plants categorized herbicide tolerance “1” (moderate; 26%-40% damaged leaf area) ([4]; 25 g Al/ha, total 16): 0
Number of plants categorized herbicide tolerance “2” (good; 16%-25% damaged leaf area) ([4]; 25 g Al/ha, total 16): 0
Number of plants categorized herbicide tolerance “3” (high; less than or equal to 15% damaged leaf area) ([4]; 25 g Al/ha, total 16): 16
Number of plants categorized herbicide tolerance “0” (marginal; 41%-100% damaged leaf area) ([4]; 50 g Al/ha, total 4): 0
Number of plants categorized herbicide tolerance “1” (moderate; 26%-40% damaged leaf area) ([4]; 50 g Al/ha, total 4): 0
Number of plants categorized herbicide tolerance “2” (good; 16%-25% damaged leaf area) ([4]; 50 g Al/ha, total 4): 2
Number of plants categorized herbicide tolerance “3” (high; less than or equal to 15% damaged leaf area) ([4]; 50 g Al/ha, total 4): 2
Number of plants categorized herbicide tolerance “0” (marginal; 41%-100% damaged leaf area) ([4]; 75 g Al/ha, total 4): 0
Number of plants categorized herbicide tolerance “1” (moderate; 26%-40% damaged leaf area) ([4]; 75 g Al/ha, total 4): 0
Number of plants categorized herbicide tolerance “2” (good; 16%-25% damaged leaf area) ([4]; 75 g Al/ha, total 4): 0
Number of plants categorized herbicide tolerance “3” (high; less than or equal to 15% damaged leaf area) ([4]; 75 g Al/ha, total 4): 4
Number of plants categorized herbicide tolerance “0” (marginal; 41%-100% damaged leaf area) ([5]; 6.25 g Al/ha, total 12): 1
Number of plants categorized herbicide tolerance “1” (moderate; 26%-40% damaged leaf area) ([5]; 6.25 g Al/ha, total 12): 0
Number of plants categorized herbicide tolerance “2” (good; 16%-25% damaged leaf area) ([5]; 6.25 g Al/ha, total 12): 0
Number of plants categorized herbicide tolerance “3” (high; less than or equal to 15% damaged leaf area) ([5]; 6.25 g Al/ha, total 12): 11
Number of plants categorized herbicide tolerance “0” (marginal; 41%-100% damaged leaf area) ([5]; 25 g Al/ha, total 16): 0
Number of plants categorized herbicide tolerance “1” (moderate; 26%-40% damaged leaf area) ([5]; 25 g Al/ha, total 16): 2
Number of plants categorized herbicide tolerance “2” (good; 16%-25% damaged leaf area) ([5]; 25 g Al/ha, total 16): 3
Number of plants categorized herbicide tolerance “3” (high; less than or equal to 15% damaged leaf area) ([5]; 25 g Al/ha, total 16): 11
Number of plants categorized herbicide tolerance “0” (marginal; 41%-100% damaged leaf area) ([5]; 50 g Al/ha, total 4): 0
Number of plants categorized herbicide tolerance “1” (moderate; 26%-40% damaged leaf area) ([5]; 50 g Al/ha, total 4): 0
Number of plants categorized herbicide tolerance “2” (good; 16%-25% damaged leaf area) ([5]; 50 g Al/ha, total 4): 1
Number of plants categorized herbicide tolerance “3” (high; less than or equal to 15% damaged leaf area) ([5]; 50 g Al/ha, total 4): 3
Number of plants categorized herbicide tolerance “0” (marginal; 41%-100% damaged leaf area) ([5]; 75 g Al/ha, total 4): 0
Number of plants categorized herbicide tolerance “1” (moderate; 26%-40% damaged leaf area) ([5]; 75 g Al/ha, total 4): 1
Number of plants categorized herbicide tolerance “2” (good; 16%-25% damaged leaf area) ([5]; 75 g Al/ha, total 4): 0
Number of plants categorized herbicide tolerance “3” (high; less than or equal to 15% damaged leaf area) ([5]; 75 g Al/ha, total 4): 3
Average maximum phytotoxicity scoring ([6]; cotton event Evo33/1): 3 (“3” = high tolerance; 0%-10% damaged leaf area)
Average maximum phytotoxicity scoring ([6]; cotton event Evo33/2): 3 (“3” = high tolerance; 0%-10% damaged leaf area)
Average maximum phytotoxicity scoring ([6]; cotton event Evo33/3): 3 (“3” = high tolerance; 0%-10% damaged leaf area)
Average maximum phytotoxicity scoring ([6]; cotton event Evo33/4): 3 (“3” = high tolerance; 0%-10% damaged leaf area)
Average maximum phytotoxicity scoring ([6]; cotton event Evo33/5): 3 (“3” = high tolerance; 0%-10% damaged leaf area)
Average maximum phytotoxicity scoring ([6]; cotton event Evo33/6): 3 (“3” = high tolerance; 0%-10% damaged leaf area)
Average maximum phytotoxicity scoring ([7]; cotton event Evo41/1): 3 (“3” = high tolerance; 0%-10% damaged leaf area)
Average maximum phytotoxicity scoring ([7]; cotton event Evo41/2): 3 (“3” = high tolerance; 0%-10% damaged leaf area)
Average maximum phytotoxicity scoring ([7]; cotton event Evo41/3): 3 (“3” = high tolerance; 0%-10% damaged leaf area)
Average maximum phytotoxicity scoring ([7]; cotton event Evo41/4): 3 (“3” = high tolerance; 0%-10% damaged leaf area)
Average maximum phytotoxicity scoring ([7]; cotton event Evo41/5): 3 (“3” = high tolerance; 0%-10% damaged leaf area)
Average maximum phytotoxicity scoring ([7]; cotton event Evo41/6): 3 (“3” = high tolerance; 0%-10% damaged leaf area)
Average maximum phytotoxicity scoring ([7]; cotton event Evo41/7): 3 (“3” = high tolerance; 0%-10% damaged leaf area)
Average maximum phytotoxicity scoring ([7]; cotton event Evo41/8): 3 (“3” = high tolerance; 0%-10% damaged leaf area)
Average maximum phytotoxicity scoring ([7]; cotton event Evo41/9): 3 (“3” = high tolerance; 0%-10% damaged leaf area)
Average maximum phytotoxicity scoring ([7]; cotton event Evo41/10): 3 (“3” = high tolerance; 0%-10% damaged leaf area)
Average maximum phytotoxicity scoring ([7]; cotton event Evo41/11): 3 (“3” = high tolerance; 0%-10% damaged leaf area)
Average maximum phytotoxicity scoring ([7]; cotton event Evo41/12): 2 (“2” = good tolerance; 11%-15% damaged leaf area)
Average maximum phytotoxicity scoring ([7]; cotton event Evo41/13): 3 (“3” = high tolerance; 0%-10% damaged leaf area)
Average maximum phytotoxicity scoring ([7]; cotton event Evo41/14): 3 (“3” = high tolerance; 0%-10% damaged leaf area)
Average maximum phytotoxicity scoring ([7]; cotton event Evo41/15): 3 (“3” = high tolerance; 0%-10% damaged leaf area)
